In patent publication US11155586B2, “Cystine knot scaffold platform” (Genentech, Inc., priority 2015, dated 2021):
Positions of bridges follow the written chain, without caps; N, C: chain ends. Non-standard residues stand in square brackets, D forms with d. Residues, ends and D or L forms follow the SMILES beside them. 1Nal = N[C@@H](Cc1cccc2ccccc12)C(=O)O

Tests used:
hVEGF-A = target: T1, hVEGF-A (Homo sapiens, UniProt P15692); assay: KDR-CHO VEGF assay to determine cellular IC50 (VEGF mediated Tyr phosphorylation of KDR); assay type: cell-based
T1 sequence (P15692 207-395): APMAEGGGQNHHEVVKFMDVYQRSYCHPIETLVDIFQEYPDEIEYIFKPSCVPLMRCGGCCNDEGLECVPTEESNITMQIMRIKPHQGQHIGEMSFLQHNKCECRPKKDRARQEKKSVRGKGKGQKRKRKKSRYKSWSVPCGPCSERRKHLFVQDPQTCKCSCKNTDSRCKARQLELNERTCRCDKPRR
Protocol: KDR-CHO cells (CHO cells stably transfected with gD tagged-KDR) were grown in cell growth medium (DMEM/Ham's F-12, 10% diafiltered FBS (GIBCO catalog no. 26400), 25 mM HEPES, 2 mM L-GLUTAMAX™). For VEGF stimulation assay, 5×10^4 cells/well were plated in 100 μl of cell plating medium (DMEM/Ham's F-12, 0.2% BSA, 0.25% diafiltered FBS, 25 mM HEPES, 2 mM L-GLUTAMAX™) in 96-well tissue culture plate and incubated at 37° C. overnight. The medium was replaced with 100 I1 of serum-free cell stimulation medium (DMEM/Ham's F-12, 0.5% BSA, 25 mM HEPES) and cells were incubated at 37° C. for 2 hr. One hour before stimulation, the medium was replaced with 50 I1 of serum-free cell stimulation medium. Concurrently, VEGF (50 ng/ml for hVEGF, 100 ng/ml for mVEGF and rVEGF) was pre-incubated with titrated amount of CKP or anti-VEGF in 50 μl of serum-free cell stimulation medium at 37° C. for 1 hour and added to the cells. The cells were stimulated for 15 min at 37 C and the medium is removed. The cells were lysed with 130 I1 of ice-cold cell lysis buffer (150 mM NaCl, 50 mM HEPES, 0.5% Triton-X 100, HALT protease and phosphatase inhibitor cocktail (ThermoFisher Scientific, Inc. catalog no. 78444), 5 mM EDTA). VEGF mediated Tyr phosphorylation of KDR was determined by ELISA-based assay. Briefly, MAXISORP™ 96 well plates (ThermoFisher Scientific, Inc. catalog no. 439454) were coated with 100 I1 of anti-gD antibody diluted in PBS (1 μg/ml) at 4° C. overnight and washed three times with washing buffer (PBS, 0.05% TWEEN®20, pH 7.4). The plates were blocked with 300 I1 of blocking buffer (PBS, 0.5% BSA) at room temperature for 1 hour followed by washing three times with washing buffer. The above KDR-CHO cell lysate (100 μl) was added to each well and incubated at room temperature for 2 hours. The plates were washed four times with washing buffer followed by incubation with 100 I1 of 0.5 μg/ml biotin-conjugated anti-phosphotyrosine (clone 4G10, Millipore catalog no. 16-103) in blocking buffer at room temperature for 2 hours. After washing four times, the plates were incubated with 100 I1 of HRP-conjugated streptavidin in blocking buffer at room temperature for 30 min. After washing four times, the plates were developed with 100 I1 of TMB substrate (BD Biosciences) at room temperature for 20-30 min and stopped by addition of 50 μl of H2SO4 solution. The optical density of each well was determined using a microplate reader set to 450 nm.

hVEGF-A (8-109) = target: T2, hVEGF-A (8-109) (Homo sapiens, UniProt P15692); assay: SPR binding assay (BIACORE 3000, 37° C.); details: hVEGF-A (8-109), Table 29
T2 sequence (P15692 34-135 isoform P15692-4): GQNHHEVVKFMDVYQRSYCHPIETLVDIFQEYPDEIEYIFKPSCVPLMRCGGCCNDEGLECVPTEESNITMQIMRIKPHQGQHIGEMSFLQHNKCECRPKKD
Protocol: Depending on the format of the assay either a streptavidin sensor (SA) or a dextran-coated (CM5) sensor was utilized as described below.
For use with the SA sensor, VEGF-A was first biotinylated (no more than 2 biotin/VEGF-A) by incubating the protein with EZ-link NHS-PEG4-Biotin (Pierce) in a 1:1.5 molar ratio respectively, in PBS for 2 hours on ice. Reaction was then quenched by addition of 10 molar excess of Glycine pH 8.0 and the sample was buffer exchanged into PBS using an Amicon 0.5 mL 3000 MWCO ultra-centrifugal filters (EMD Millipore). The biotinylation state of the protein was verified by LC-MS analysis. Biotinylated VEGF-A was then captured on the surface until a resonance unit (RU) signal of about ˜400. For immobilization of VEGF-A on CM5 sensor, the surface was first activated with a mixture of N-ethyl-N′-(3-dimethylaminopropyl)carbodiimide hydrochloride and N-hydroxysuccinimide (EDC/NHS) according to the supplier instructions. VEGF-A was then diluted into coupling buffer (0.1 M Acetate Buffer, pH 5.0) and injected until the signal reached about ˜400 RU followed by a wash with 1 M ethanolamine pH 8.0 to quench remaining activated sites.
Following the capture step, a series of the peptide concentrations were prepared in HBS-EP buffer with matching DMSO concentrations to 0.1% and injected at a flow rate of […]. The resulting sensorgrams were then analyzed using a 1:1 binding model to obtain kinetic data and affinities using Scrubber 2.0 (BioLogic Software).

hVEGF(8-109) = target: T3, hVEGF(8-109) (Homo sapiens, UniProt P15692); assay: Spot phage ELISA; assay type: binding; details: Table 27
T3 construct: hVEGF(8-109) or BSA were coated on 384-well MAXISORP™ immunoplates
T3 sequence (P15692 214-315): T2 sequence (P15692 34-135 isoform P15692-4)
How it was run: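 Clones counted positive when hVEGF(8-109) signal exceeded BSA background by over 3-fold, per spot ELISA using anti-M13-HRP/TMB detection. Phage came from overnight 37° C. cultures of individual clones picked after four binding rounds, supernatant diluted 1:3.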

SMILES	FOLD IMPROVEMENT RELATIVE TO VARIANT 9.54.90 (hVEGF-A; Table 36, from cellular IC50)	FOLD IMPROVEMENT RELATIVE TO VARIANT 9.54.90 (hVEGF-A; Table 38, from cellular IC50)	other results
CC[C@H](C)[C@H](NC(=O)[C@@H]1CSSC[C@H](NC(=O)CN)C(=O)N[C@@H](CC(N)=O)C(=O)N[C@@H]([C@@H](C)CC)C(=O)N[C@@H](CCSC)C(=O)N[C@@H](CC(C)C)C(=O)N2CCC[C@H]2C(=O)N[C@@H](Cc2ccccc2)C(=O)N[C@@H](Cc2c[nH]c3ccccc23)C(=O)NCC(=O)N[C@H]2CSSC[C@H](NC(=O)[C@H](CCC(=O)O)NC(=O)[C@H](Cc3ccccc3)NC(=O)[C@H](CC(=O)O)NC(=O)[C@H](CCCNC(=N)N)NC(=O)CNC2=O)C(=O)N[C@@H](CCSC)C(=O)N[C@@H](CO)C(=O)N[C@@H](CC(=O)O)C(=O)N1)C(=O)N[C@H]1CSSC[C@@H](C(=O)NCC(=O)O)NC(=O)[C@H](CO)NC(=O)[C@H](CCC(N)=O)NC(=O)[C@H](Cc2ccc(O)cc2)NC(=O)[C@H](Cc2ccc(O)cc2)NC(=O)[C@H](CCC(N)=O)NC1=O [9.54.90.12] (H-GCNIMLPFWGCGRDFECMSDCICQYYQSCG-OH; disulfide 2-21, 11-17, 23-29; N-terminus and C-terminus assumed)	1.125	–	–
CC[C@H](C)[C@H](NC(=O)[C@@H]1CSSC[C@H](NC(=O)CN)C(=O)N[C@@H](CC(N)=O)C(=O)N[C@@H]([C@@H](C)CC)C(=O)N[C@@H](CCSC)C(=O)N[C@@H](CC(C)C)C(=O)N2CCC[C@H]2C(=O)N[C@@H](Cc2ccc(O)cc2)C(=O)N[C@@H](Cc2c[nH]c3ccccc23)C(=O)NCC(=O)N[C@H]2CSSC[C@H](NC(=O)[C@H](CCC(=O)O)NC(=O)[C@H](Cc3ccccc3)NC(=O)[C@H](CC(=O)O)NC(=O)[C@H](CCCNC(=N)N)NC(=O)CNC2=O)C(=O)N[C@@H](CCSC)C(=O)N[C@@H](CC(N)=O)C(=O)N[C@@H](CCC(N)=O)C(=O)N1)C(=O)N[C@H]1CSSC[C@@H](C(=O)NCC(=O)O)NC(=O)[C@H](CO)NC(=O)[C@H](CCC(N)=O)NC(=O)[C@H](Cc2ccc(O)cc2)NC(=O)[C@H](Cc2ccc(O)cc2)NC(=O)[C@H](CCC(N)=O)NC1=O [9.54.90.13.F8Y] (H-GCNIMLPYWGCGRDFECMNQCICQYYQSCG-OH; disulfide 2-21, 11-17, 23-29; N-terminus and C-terminus assumed)	–	0.67	–
CC[C@H](C)[C@@H]1NC(=O)[C@H](Cc2ccccc2)NC(=O)[C@@H]2CSSC[C@H](NC(=O)CNC(=O)[C@H](Cc3c[nH]c4ccccc34)NC(=O)[C@H](Cc3ccccc3)NC(=O)[C@@H]3CCCN3C(=O)[C@H](CC(C)C)NC(=O)[C@H](CCSC)NC(=O)[C@H]([C@@H](C)CC)NC(=O)[C@H](CC(N)=O)NC(=O)[C@@H](NC(=O)CN)CSSC[C@@H](C(=O)N[C@H](C(=O)N[C@H]3CSSC[C@@H](C(=O)NCC(=O)O)NC(=O)[C@H](CO)NC(=O)[C@H](CCC(N)=O)NC(=O)[C@H](Cc4ccc(O)cc4)NC(=O)[C@H](Cc4ccc(O)cc4)NC(=O)[C@H](CCC(N)=O)NC3=O)[C@@H](C)CC)NC(=O)[C@H](CC(N)=O)NC1=O)C(=O)NCC(=O)N[C@@H](CCCNC(=N)N)C(=O)N[C@@H](CC(=O)O)C(=O)N[C@@H](Cc1ccccc1)C(=O)N[C@@H](CCC(=O)O)C(=O)N2 [9.54.90.44] (H-GCNIMLPFWGCGRDFECFINCICQYYQSCG-OH; disulfide 2-21, 11-17, 23-29; N-terminus and C-terminus assumed)	1.16	–	–
CC[C@H](C)[C@@H]1NC(=O)[C@H](CC(N)=O)NC(=O)[C@@H](NC(=O)CN)CSSC[C@@H](C(=O)N[C@H](C(=O)N[C@H]2CSSC[C@@H](C(=O)NCC(=O)O)NC(=O)[C@H](CO)NC(=O)[C@H](CCC(N)=O)NC(=O)[C@H](Cc3ccc(O)cc3)NC(=O)[C@H](Cc3ccc(O)cc3)NC(=O)[C@H](CCC(N)=O)NC2=O)C(C)C)NC(=O)CNC(=O)[C@H](C)NC(=O)[C@H](CC(C)C)NC(=O)[C@@H]2CSSC[C@H](NC(=O)CNC(=O)[C@H](Cc3cccc4ccccc34)NC(=O)[C@H](Cc3ccccc3)NC(=O)[C@@H]3CCCN3C(=O)[C@H](CC(C)C)NC(=O)[C@H](CCSC)NC1=O)C(=O)NCC(=O)N[C@@H](CCCNC(=N)N)C(=O)N[C@@H](CC(=O)O)C(=O)N[C@@H](Cc1ccccc1)C(=O)N[C@@H](CCC(=O)O)C(=O)N2 [9.54.90.Naph1] (H-GCNIMLPF[1Nal]GCGRDFECLAGCVCQYYQSCG-OH; disulfide 2-21, 11-17, 23-29; N-terminus and C-terminus assumed)	–	0.24	–
CC[C@H](C)[C@H](NC(=O)[C@@H]1CSSC[C@H](NC(=O)CN)C(=O)N[C@@H](CC(=O)O)C(=O)N[C@@H](C(C)C)C(=O)N[C@@H](CCSC)C(=O)N[C@@H](CCC(N)=O)C(=O)N2CCC[C@H]2C(=O)N[C@@H](Cc2ccc(O)cc2)C(=O)N[C@@H](Cc2c[nH]c3ccccc23)C(=O)NCC(=O)N[C@H]2CSSC[C@H](NC(=O)[C@H](CC(=O)O)NC(=O)[C@H]([C@@H](C)CC)NC(=O)[C@H](CC(=O)O)NC(=O)[C@@H]3CCCN3C(=O)CNC2=O)C(=O)N[C@@H](CC(C)C)C(=O)N[C@@H](CO)C(=O)N[C@@H](CC(N)=O)C(=O)N1)C(=O)N[C@H]1CSSC[C@@H](C(=O)NCC(=O)O)NC(=O)[C@H](CO)NC(=O)[C@H](CC(N)=O)NC(=O)[C@H](Cc2ccc(O)cc2)NC(=O)[C@H](Cc2c[nH]c3ccccc23)NC(=O)[C@H](Cc2c[nH]cn2)NC1=O [9.63.12.12] (H-GCDVMQPYWGCGPDIDCLSNCICHWYNSCG-OH; disulfide 2-21, 11-17, 23-29; N-terminus and C-terminus assumed)	2.41	–	–
CSCC[C@@H]1NC(=O)[C@H](CCC(=O)O)NC(=O)[C@@H]2CSSC[C@H](NC(=O)[C@H](CC(=O)O)NC(=O)[C@H](Cc3ccccc3)NC(=O)[C@H](CC(=O)O)NC1=O)C(=O)N[C@@H](CC(C)C)C(=O)N[C@@H](C)C(=O)NCC(=O)N[C@H](C(=O)N[C@H](C(=O)N[C@H]1CSSC[C@@H](C(=O)NCC(=O)O)NC(=O)[C@H](CO)NC(=O)[C@H](CC(N)=O)NC(=O)[C@H](Cc3ccc(O)cc3)NC(=O)[C@H](Cc3c[nH]c4ccccc34)NC(=O)[C@H](Cc3c[nH]cn3)NC1=O)C(C)C)CSSC[C@H](NC(=O)CN)C(=O)N[C@@H](CC(=O)O)C(=O)N[C@@H](C(C)C)C(=O)N[C@@H](CCSC)C(=O)N[C@@H](CCC(N)=O)C(=O)N1CCC[C@H]1C(=O)N[C@@H](Cc1ccc(O)cc1)C(=O)N[C@@H](Cc1c[nH]c3ccccc13)C(=O)NCC(=O)N2 [VEGF_CKP9.63.44] (H-GCDVMQPYWGCEMDFDCLAGCVCHWYNSCG-OH; disulfide 2-21, 11-17, 23-29 (inferred); N-terminus and C-terminus assumed)	–	–	kd (hVEGF-A (8-109)): 0.11; S/N (signal to noise ratio as compared to BSA control) (hVEGF(8-109)): 19.5; ELISA (hVEGF(8-109); loop 2 variants based on VEGF_CKP9.63 framework): 1.7
